Measurements reported in PMC7733455, “A novel multistage antiplasmodial inhibitor targeting Plasmodium falciparum histone deacetylase 1” (Cell Discovery, 2020).

Assays:
P. falciparum GB4 = experiment: 3-day SYBR Green I GIA, strain GB4; assay type: cell-based; settings: Plasmodium falciparum; GB4 resistant to chloroquine; read-out: Resistant isolates EC50, GB4
Description: (§1) A 3-day SYBR Green I inhibition EC50 assay was performed as described previously. Briefly, highly synchronized ring-stage parasites by 5% sorbitol (1% parasitemia and 2% hematocrit) were incubated in a 96-well plate with compounds in a total volume of 200 μL. […] The parasites were cultured for 72 h before SYBR Green I staining as described above. The EC50 was calculated by GraphPad Prism. DHA was used as a positive control, and the final concentration of DMSO was 1%.

P. falciparum C2A = experiment: 3-day SYBR Green I GIA, strain C2A; assay type: cell-based; settings: Plasmodium falciparum, read-out: Resistant isolates EC50, C2A
Description: as §1

P. falciparum CP286 = experiment: 3-day SYBR Green I GIA, strain CP286; assay type: cell-based; settings: Plasmodium falciparum; CP286 resistant to pyrimethamine and chloroquine; read-out: Resistant isolates EC50, CP286
Description: as §1

[1] = system: P. falciparum isolate 6218; experiment: 3-day SYBR Green I GIA, field isolate 6218; assay type: cell-based; settings: Plasmodium falciparum; artemisinin- and piperaquine-resistant isolate; read-out: Resistant isolates EC50, 6218
Description: as §1

[2] = system: P. falciparum isolate 6320; experiment: 3-day SYBR Green I GIA, field isolate 6320; assay type: cell-based; settings: Plasmodium falciparum; artemisinin- and piperaquine-resistant isolate; read-out: Resistant isolates EC50, 6320
Description: as §1

[3] = system: P. falciparum clinical isolates 6218 and 6320; experiment: Ring-stage survival assay (RSA), isolates 6218 and 6320; assay type: cell-based, Plasmodium falciparum; settings: 700 nM, 6 h exposure, synchronized rings of isolates 6218 and 6320
Description: An RSA was performed as described previously[65] to evaluate the activity of JX21108 against the artemisinin- and piperaquine-resistant P. falciparum clinical isolates 6218 and 6320[43]. Briefly, parasites were highly synchronized at 0–3 hpi by a 60%/40%-Percoll gradient[66] followed by 5% D-sorbitol[67] treatment after 3 h. The parasite suspension (0.5%–1% parasitemia, 2% hematocrit) was incubated with compounds at 700 nM in a total volume of 2 mL in a 48-well plate for 6 h. After that, the culture mixture was washed three times with 15 mL of CM before another 66 h of cultivation with CM. A Giemsa-stained blood smear was made after cultivation. Parasitemia was counted from at least 10,000 RBCs by microscopy. The survival rate was calculated as the percentage of that in DMSO control. DHA at a concentration of 700 nM served as a positive control.

P. falciparum 3D7 [4] = experiment: Ring-stage survival assay (RSA), sensitive strain 3D7; assay type: cell-based, Plasmodium falciparum; settings: 700 nM
P. falciparum 3D7 [5] = experiment: 3-day SYBR Green I growth inhibition assay (GIA), strain 3D7; assay type: cell-based, Plasmodium falciparum; settings: Plasmodium falciparum, 3D7, 72 h, 3-day SYBR Green I GIA, drug-sensitive strain 3D7; read-out: Antiplasmodial activity EC50, 3D7
Description: as §1

P. falciparum Dd2 = experiment: 3-day SYBR Green I GIA, multidrug-resistant strain Dd2; assay type: cell-based, Plasmodium falciparum; settings: Plasmodium falciparum, 72 h; 3-day SYBR Green I GIA, multidrug-resistant strain Dd2; read-out: Antiplasmodial activity EC50, Dd2
Description: as §1

[6] = In vitro cytotoxicity analysis (CellTiter-Glo), HepG2; settings: human, HepG2 cells
Description: (§2) In all, 1% DMSO was used as a negative control. The inhibition of each drug was normalized to that of the DMSO control. EC50 was calculated by GraphPad Prism. Three independent assays with two technical replicates each time were conducted in this experiment.

HepG2 cells = experiment: as above
Description: as §2

[7] = In vitro cytotoxicity analysis (CellTiter-Glo), 293T; settings: human, 293T cells, Cytotoxicity EC50, 293T, 72 h, CellTiter-Glo
Description: as §2

293T cells = experiment: as above
Description: as §2

[8] = system: parasite histone H3 acetylation; experiment: Western blot of histone H3 acetylation in parasites; assay type: cell-based, Plasmodium falciparum; settings: 4 h treatment of asynchronous 3D7; quisinostat/JX21108 5 and 20 nM, SAHA 500 nM
Description: Then the parasite samples were harvested and treated with 0.15% saponin to remove the RBC proteins and sonicated in 1% NP40 lysis buffer. After centrifugation at 12,000× g for 15 min, the supernatant was resuspended in a routine SDS loading buffer. Parasite proteins were separated by 10% SDS-PAGE and transferred onto PVDF membranes (Millipore). […] A2348) followed by a secondary antibody conjugated with HRP (Jackson Immuno Research Laboratories). The chemiluminescent HRP substrate Immobilon Western Kit (Millipore) was used for signal detection.

Row | Structure (SMILES) | EC50 (P. falciparum GB4) [nM] | EC50 (P. falciparum C2A) [nM] | EC50 (P. falciparum CP286) [nM] | EC50 [1] [nM] | EC50 [2] [nM] | RSA survival rate [3] [%] | RSA effect on ring-stage parasites of 3D7 (P. falciparum 3D7 [4]) | EC50 (P. falciparum 3D7 [5]) [nM] | EC50 (P. falciparum Dd2) [nM] | EC50 at 72 h [6] [nM] | Selectivity index for HepG2 (EC50 HepG2/EC50 3D7) (HepG2 cells) | EC50 at 72 h [7] [nM] | Selectivity index for 293T (EC50 293T/EC50 3D7) (293T cells) | pan-acetylation levels of parasite histone H3 [8]
1 | C[C@H]1[C@@H](O)O[C@@H]2O[C@@]3(C)CC[C@H]4[C@H](C)CC[C@@H]1[C@@]24OO3 [DHA, dihydroartemisinin, reference compound] | 3.2 ± 1.2 | 3.7 ± 2.4 | 5.6 ± 2.4 | 5.5 ± 1.1 | 6.5 ± 1.4 | ~8 | efficiently killed the ring-stage parasites |  |  |  |  |  |  | 
2 | Cl.Cn1cc(CN2CC3(CCN(c4ncc(C(=O)NO)cn4)CC3)C2)c2ccccc21 [JX21014] |  |  |  |  |  |  |  | 16.9 ± 0.8 | 10.7 ± 0.2 | 348 ± 24 | 21 | 1130 ± 26 | 67 | 
3 | Cl.Cn1cc(CN2CCC3(CCCN(c4ncc(C(=O)NO)cn4)C3)CC2)c2ccccc21 [JX21017] |  |  |  |  |  |  |  | 28.9 ± 1.2 | 32.4 ± 1.8 | 2350 ± 93 | 98 | 4497 ± 33 | 156 | 
4 | Cl.O=C(NO)c1cnc(N2CCC3(CCN(Cc4ccc5ccccc5c4)C3)C2)nc1 (centres unmarked) [JX21101] |  |  |  |  |  |  |  | 3.5 ± 0.2 | 2.18 ± 0.02 | 651 ± 63 | 186 | 1160 ± 193 | 331 | 
5 | COc1ccc2c(c1)c(CN1CCC3(CCN(c4ncc(C(=O)NO)cn4)C3)C1)cn2C.Cl (centres unmarked) [JX21104] |  |  |  |  |  |  |  | 1.6 ± 0.3 | 3 ± 0.1 | 534 ± 45 | 176 | 659 ± 128 | 217 | 
6 | Cl.O=C(NO)c1cnc(N2CCC3(CCN(Cc4ccc5c(c4)CCO5)C3)C2)nc1 (centres unmarked) [JX21109] |  |  |  |  |  |  |  | 9.8 ± 0.3 | 7 ± 0.3 | 1310 ± 73 | 133 | 2560 ± 113 | 260 | 
7 | Cl.O=C(NO)c1cnc(N2CCC3(CCN(Cc4csc5ccccc45)C3)C2)nc1 (centres unmarked) [JX21115] |  |  |  |  |  |  |  | 4.8 ± 0.1 | 7.2 ± 0.2 | 864 ± 76 | 179 | 482 ± 42 | 100 | 
8 | Cl.O=C(NO)c1cnc(N2CCC3(CCN(Cc4cc5ccccc5o4)C3)C2)nc1 (centres unmarked) [JX21117] |  |  |  |  |  |  |  | 6.4 ± 0.3 | 7.61 ± 0.05 | 1640 ± 25 | 255 | 1610 ± 334 | 252 | 
9 | Cl.O=C(NO)c1cnc(N2CCC3(CCN(Cc4cc5ccccc5s4)C3)C2)nc1 (centres unmarked) [JX21118] |  |  |  |  |  |  |  | 5.61 ± 0.04 | 6.4 ± 1.3 | 1670 ± 230 | 298 | 1640 ± 122 | 292 | 
10 | Cl.Cn1c(CN2CCC3(CCN(c4ncc(C(=O)NO)cn4)C3)C2)cc2ccccc21 (centres unmarked) [JX21123] |  |  |  |  |  |  |  | 6.2 ± 1.3 | 7.2 ± 0.3 | 1250 ± 62 | 202 | 1200 ± 156 | 193 | 
11 | Cl.Cn1nc(CN2CCC3(CCN(c4ncc(C(=O)NO)cn4)C3)C2)c2ccccc21 (centres unmarked) [JX21124] |  |  |  |  |  |  |  | 5.8 ± 0.9 | 4.3 ± 0.5 | 1130 ± 168 | 195 | 1330 ± 29 | 229 | 
12 | Cl.Cn1cc(CN2CCC3(CCN(c4ncc(C(=O)NO)cn4)C3)C2)c2ccncc21 (centres unmarked) [JX21129] |  |  |  |  |  |  |  | 8 ± 0.5 | 7.8 ± 1.3 | 1530 ± 69 | 192 | 1120 ± 98 | 141 | 
13 | Cl.Cn1cc(CN2CCC3(CCN(c4ncc(C(=O)NO)cn4)C3)C2)c2cccnc21 (centres unmarked) [JX21130] |  |  |  |  |  |  |  | 8.4 ± 0.4 | 7.5 ± 2 | 1180 ± 84 | 140 | 4640 ± 375 | 552 | 
14 | Cl.O=C(NO)c1cnc(N2CCC3(CCN(Cc4c5ccccc5cc5ccccc45)C3)C2)nc1 (centres unmarked) [JX21138] |  |  |  |  |  |  |  | 28.8 ± 18.5 | 21.2 ± 0.9 | 1310 ± 14 | 45 | 1990 ± 559 | 69 | 
15 | Cl.O=C(NO)c1cnc(N2CCC3(CCN(Cc4ccc5c(c4)OCO5)C3)C2)nc1 (centres unmarked) [JX21140] |  |  |  |  |  |  |  | 10.5 ± 0.1 | 5.4 ± 0.2 | 493 ± 149 | 47 | 2450 ± 301 | 235 | 
16 | Cl.Cn1cc(CN2CCC3(CCN(c4ncc(C(=O)NO)cn4)C3)C2)c2cc(Br)ccc21 (centres unmarked) [JX21141] |  |  |  |  |  |  |  | 3.3 ± 0.5 | 1.736 ± 0.005 | 294 ± 45 | 88 | 633 ± 209 | 189 | 
17 | COc1ccc2c(CN3CCC4(CCN(c5ncc(C(=O)NO)cn5)C4)C3)cn(C)c2c1.Cl (centres unmarked) [JX21142] |  |  |  |  |  |  |  | 13.6 ± 4.2 | 3.4 ± 2.2 | 975 ± 1 | 72 | 1230 ± 102 | 90 | 
18 | O=C(CCCCCCC(=O)Nc1ccccc1)NO [SAHA] |  |  |  |  |  |  |  |  |  |  |  |  |  | greatly increased the pan-acetylation levels of parasite histone H3
